In ChEMBL document CHEMBL1142911, “Design and synthesis of pyridine-pyrazolopyridine-based inhibitors of protein kinase B/Akt” (Bioorg Med Chem, 2007):

Experiments:
[1] = test system: MIA PaCa-2; test: Antiproliferative activity against MIA PaCa cells by MTT assay; type: functional, cell-based; conditions: Homo sapiens
[2] = molecular target: cAMP-dependent protein kinase (PKA) (Homo sapiens, UniProt P22694+P17612+P22612); test: Inhibition of PKA; type: protein assay

| Structure (SMILES) | IC50 [2] [nM] | EC50 [1] [nM] |
| --- | --- | --- |
| N[C@H](COc1cncc(-c2cc3cn[nH]c3cc2[N+](=O)[O-])c1)Cc1c[nH]c2ccccc12 | – | 2940 |
| Nc1cc2[nH]nc(Cl)c2cc1-c1cncc(OC[C@@H](N)Cc2c[nH]c3ccccc23)c1 | 58 | 330 |
| N[C@H](COc1cncc(-c2ccc3[nH]nc(Cl)c3c2)c1)Cc1c[nH]c2ccccc12 | 6.8 | 380 |
| N[C@H](COc1cncc(-c2cc3cn[nH]c3cn2)c1)Cc1c[nH]c2ccccc12 | – | 1160 |
| N[C@H](COc1cncc(-c2cc3cn[nH]c3cn2)c1)Cc1ccccc1 | – | 1690 |
| C=Cc1n[nH]c2cnc(-c3cncc(OC[C@@H](N)Cc4ccccc4)c3)cc12 | 32 | 660 |
| N[C@H](COc1cncc(-c2ccc3[nH]ncc3c2)c1)Cc1c[nH]c2ccccc12 | – | 820 |
| Cc1n[nH]c2cnc(-c3cncc(OC[C@@H](N)Cc4c[nH]c5ccccc45)c3)cc12 | 15 | 41 |

Now from value to compound, other results behind:

| IC50 [2] [nM] | Structure (SMILES) | EC50 [1] [nM] |
| --- | --- | --- |
| 46 | N[C@H](COc1cncc(-c2cc3c(Cl)n[nH]c3cn2)c1)Cc1ccccc1 | – |
| 371 | N[C@H](COc1cncc(-c2cc3c(-c4ccccc4)n[nH]c3cn2)c1)Cc1ccccc1 | 584 |
| 16 | N[C@H](COc1cncc(-c2ccc3[nH]nc(C(F)(F)F)c3c2)c1)Cc1c[nH]c2ccccc12 | 1290 |
| 274 | N[C@H](COc1cncc(-c2cc3c(-c4ccco4)n[nH]c3cn2)c1)Cc1ccccc1 | 1200 |
| 32 | Cc1n[nH]c2cnc(-c3cncc(OC[C@@H](N)Cc4ccccc4)c3)cc12 | 680 |
